From patent publication US20250325562A1, “Intravenous Ganaxolone Formulations and Methods of Use in Treating Status Epilepticus and Other Seizure Disorders” (MARINUS PHARMACEUTICALS, INC., priority 2015, published 2025)

Test system: pilocarpine induced status epilepticus (SE)
Test: Pilocarpine-induced status epilepticus in rats, cortical EEG power
Type: in vivo, Male Sprague-Dawley rats
Set-up: key to Treatment effect on EEG power vs vehicle, significance: * P < 0.05; ** P < 0.01; *** P < 0.001; **** P < 0.0001; ns = not significant
Method: This study was designed to determine the ability of a CAPTISOL-ganaxolone (GNX) formulation administered intravenously (IV) at 12 and 15 mg/kg to inhibit pilocarpine induced status epilepticus (SE). Allopregnanolone (Allo) (15 mg/kg; IV) was also evaluated for comparison. In this study, test drugs were administered either 15 or 60 minutes after onset of SE and compared to vehicle (30% Captisol).
Cortical EEG activity was recorded in rats before and after administration of pilocarpine to induce SE. Animals were pre-treated with LiCl to enhance and improve reliability of seizure induction and scopolamine to reduce peripheral cholinergic side effects of pilocarpine. EEG activity was recorded for 5 h after SE onset, and anticonvulsant activity was assessed by determining changes in EEG power over frequency ranges from 0.3 to 96 Hz.
Male Sprague-Dawley rats were used for the studies. Rats were surgically implanted with EEG electrodes and jugular vein catheters. The mean weight at the time of recording was 321+3 g (269-351 g).
EEG electrodes were surgically implanted in anesthetized rats. Animals were also treated with an anti-inflammatory anaelgesic (RIMADYL, (carprofen)) prior to surgery and a subcutaneous local anesthetic. Stainless steel screw electrodes chronically were implanted in the skull (0-80×¼″, Plastics-One, Roanoke, VA) such that the ends of the screws were flush with the inner skull surface. One electrode was located 3.0 mm anterior to bregma and 2 mm to the left of midline, and the second 4.0 mm posterior to bregma and 2.5 mm to the right of midline. The skull surface around the electrodes was sealed with super glue and dental acrylic, and the EEG electrode lead wires were inserted into a plastic pedestal mounted on the skull using dental acrylic. Wound edges were treated with triple antibiotic cream (bacitracin zinc, neomycin sulfate, polymyxin B sulfate; Walgreens). Following surgery, animals were administered antibiotic (ampicillin, 50 mg/kg IP at 0.4 mL/kg) and also received a chewable dose (˜10 mg) of Rimadyl following surgery. The animals were allowed to recover from EEG surgery for 1 week.
Rats were implanted with jugular-vein catheters (JVC) one week following EEG surgery. Rats were administered an anti-inflammatory/analgesic and then anesthetized and placed in a supine position. An incision was made in the skin on the right ventrolateral aspect of the neck to expose the external jugular vein which was then dissected free of surrounding fascia. A ligature was tied around the vein anteriorly to occlude blood flow returning to the heart. A second ligature was loosely tied around the vein posteriorly to create tension on the vessel during venotomy and catheter insertion. After incising the vein, a PE catheter (3Fr) was inserted into the vein and advanced approximately 30 mm towards the heart, positioning the tip at the junction of the precava and right atrium. After confirming patency of the catheter by blood withdrawal, the posterior ligature was tied off, and the catheter flushed with a “heparin-lock” solution (5 units heparin/ml saline) and plugged with a sterilized stainless steel pin. The catheter was then exteriorized by tunneling through the subcutaneous tissue to exit posterior to the head between the shoulder blades. Lastly, after suturing the catheter to the skin, all wounds were closed using sutures or wound clips. Immediately following surgery, the animals were awakened to assess catheter patency. Animals also received a chewable dose (˜10 mg) of Rimadyl following surgery to minimize pain and inflammation.
Animals were allowed a 1-week recovery time following JVC surgery. Jugular vein catheters were flushed daily with a 0.1 mL of heparin solution (5 units/mL) to maintain patency. On the day of surgery, the flushing solution contained ampicillin sulbactam (50 mg/kg). […]

Q: For `CC(=O)[C@H]1CC[C@H]2[C@@H]3CC[C@H]4C[C@](C)(O)CC[C@]4(C)[C@H]3CC[C@]12C` [Ganaxolone, 3α-hydroxy, 3β-methyl-5α-pregnan-20-one], which “Treatment effect on EEG power vs vehicle, significance” value (12 mg/kg IV, 60 min post SE onset, 10-30 Hz, 3-5 hrs post drug) is on record?
A: ns

Q: What about the “Treatment effect on EEG power vs vehicle, significance” value (12 mg/kg IV, 60 min post SE onset, 10-30 Hz, 15-30 min post drug) of the same molecule?
A: ** (** P < 0.01)

Q: What about the “Treatment effect on EEG power vs vehicle, significance” value (12 mg/kg IV, 60 min post SE onset, 10-30 Hz, 30-60 min post drug) of the same molecule?
A: ** (** P < 0.01)

Q: What about the “Treatment effect on EEG power vs vehicle, significance” value (12 mg/kg IV, 60 min post SE onset, 30-50 Hz, 0-15 min. post drug) of the same molecule?
A: ns

Q: What about the “Treatment effect on EEG power vs vehicle, significance” value (12 mg/kg IV, 60 min post SE onset, 30-50 Hz, 1-2 hrs post drug) of the same molecule?
A: ** (** P < 0.01)

Q: What about the “Treatment effect on EEG power vs vehicle, significance” value (12 mg/kg IV, 60 min post SE onset, 30-50 Hz, 2-3 hrs post drug) of the same molecule?
A: * (* P < 0.05)

Q: And the “Treatment effect on EEG power vs vehicle, significance” value (12 mg/kg IV, 60 min post SE onset, 30-50 Hz, 3-5 hrs post drug)?
A: ns

Q: What about the “Treatment effect on EEG power vs vehicle, significance” value (12 mg/kg IV, 60 min post SE onset, 30-50 Hz, 15-30 min post drug) of the same molecule?
A: ns

Q: What about the “Treatment effect on EEG power vs vehicle, significance” value (12 mg/kg IV, 60 min post SE onset, 30-50 Hz, 30-60 min post drug) of the same molecule?
A: * (* P < 0.05)

Q: What about the “Treatment effect on EEG power vs vehicle, significance” value (12 mg/kg IV, 60 min post SE onset, 50-70 Hz, 0-15 min. post drug) of the same molecule?
A: ns

Q: What about the “Treatment effect on EEG power vs vehicle, significance” value (12 mg/kg IV, 60 min post SE onset, 50-70 Hz, 1-2 hrs post drug) of the same molecule?
A: ** (** P < 0.01)

Q: What about the “Treatment effect on EEG power vs vehicle, significance” value (12 mg/kg IV, 60 min post SE onset, 50-70 Hz, 15-30 min post drug) of the same molecule?
A: * (* P < 0.05)

Q: And the “Treatment effect on EEG power vs vehicle, significance” value (12 mg/kg IV, 60 min post SE onset, 50-70 Hz, 30-60 min post drug)?
A: ** (** P < 0.01)

Q: What about the “Treatment effect on EEG power vs vehicle, significance” value (15 mg/kg IV, 15 min post SE onset, 0-5 Hz, 0-15 min. post drug) of the same molecule?
A: **** (**** P < 0.0001)

Q: What about the “Treatment effect on EEG power vs vehicle, significance” value (15 mg/kg IV, 15 min post SE onset, 0-5 Hz, 1-2 hrs post drug) of the same molecule?
A: **** (**** P < 0.0001)

Q: What about the “Treatment effect on EEG power vs vehicle, significance” value (15 mg/kg IV, 15 min post SE onset, 0-5 Hz, 2-3 hrs post drug) of the same molecule?
A: **** (**** P < 0.0001)

Q: What about the “Treatment effect on EEG power vs vehicle, significance” value (15 mg/kg IV, 15 min post SE onset, 0-5 Hz, 3-5 hrs post drug) of the same molecule?
A: *** (*** P < 0.001)

Q: What about the “Treatment effect on EEG power vs vehicle, significance” value (15 mg/kg IV, 15 min post SE onset, 0-5 Hz, 15-30 min post drug) of the same molecule?
A: **** (**** P < 0.0001)

Q: What about the “Treatment effect on EEG power vs vehicle, significance” value (15 mg/kg IV, 15 min post SE onset, 0-5 Hz, 30-60 min post drug) of the same molecule?
A: **** (**** P < 0.0001)

Q: And the “Treatment effect on EEG power vs vehicle, significance” value (15 mg/kg IV, 15 min post SE onset, 5-10 Hz, 0-15 min. post drug)?
A: **** (**** P < 0.0001)

Q: What about the “Treatment effect on EEG power vs vehicle, significance” value (15 mg/kg IV, 15 min post SE onset, 5-10 Hz, 1-2 hrs post drug) of the same molecule?
A: **** (**** P < 0.0001)

Q: And the “Treatment effect on EEG power vs vehicle, significance” value (15 mg/kg IV, 15 min post SE onset, 5-10 Hz, 2-3 hrs post drug)?
A: *** (*** P < 0.001)

Q: What about the “Treatment effect on EEG power vs vehicle, significance” value (15 mg/kg IV, 15 min post SE onset, 5-10 Hz, 3-5 hrs post drug) of the same molecule?
A: ns

Q: What about the “Treatment effect on EEG power vs vehicle, significance” value (15 mg/kg IV, 15 min post SE onset, 5-10 Hz, 15-30 min post drug) of the same molecule?
A: **** (**** P < 0.0001)

Q: What about the “Treatment effect on EEG power vs vehicle, significance” value (15 mg/kg IV, 15 min post SE onset, 5-10 Hz, 30-60 min post drug) of the same molecule?
A: **** (**** P < 0.0001)

Q: And the “Treatment effect on EEG power vs vehicle, significance” value (15 mg/kg IV, 15 min post SE onset, 10-30 Hz, 0-15 min. post drug)?
A: **** (**** P < 0.0001)

Q: What about the “Treatment effect on EEG power vs vehicle, significance” value (15 mg/kg IV, 15 min post SE onset, 10-30 Hz, 1-2 hrs post drug) of the same molecule?
A: ** (** P < 0.01)

Q: And the “Treatment effect on EEG power vs vehicle, significance” value (15 mg/kg IV, 15 min post SE onset, 10-30 Hz, 2-3 hrs post drug)?
A: * (* P < 0.05)

Q: And the “Treatment effect on EEG power vs vehicle, significance” value (15 mg/kg IV, 15 min post SE onset, 10-30 Hz, 3-5 hrs post drug)?
A: ns

Q: What about the “Treatment effect on EEG power vs vehicle, significance” value (15 mg/kg IV, 15 min post SE onset, 10-30 Hz, 15-30 min post drug) of the same molecule?
A: **** (**** P < 0.0001)

Q: What about the “Treatment effect on EEG power vs vehicle, significance” value (15 mg/kg IV, 15 min post SE onset, 10-30 Hz, 30-60 min post drug) of the same molecule?
A: **** (**** P < 0.0001)

Q: And the “Treatment effect on EEG power vs vehicle, significance” value (15 mg/kg IV, 15 min post SE onset, 30-50 Hz, 0-15 min. post drug)?
A: *** (*** P < 0.001)

Q: And the “Treatment effect on EEG power vs vehicle, significance” value (15 mg/kg IV, 15 min post SE onset, 30-50 Hz, 1-2 hrs post drug)?
A: ** (** P < 0.01)

Q: And the “Treatment effect on EEG power vs vehicle, significance” value (15 mg/kg IV, 15 min post SE onset, 30-50 Hz, 2-3 hrs post drug)?
A: ns

Q: And the “Treatment effect on EEG power vs vehicle, significance” value (15 mg/kg IV, 15 min post SE onset, 30-50 Hz, 3-5 hrs post drug)?
A: ns

Q: What about the “Treatment effect on EEG power vs vehicle, significance” value (15 mg/kg IV, 15 min post SE onset, 30-50 Hz, 15-30 min post drug) of the same molecule?
A: *** (*** P < 0.001)

Q: And the “Treatment effect on EEG power vs vehicle, significance” value (15 mg/kg IV, 15 min post SE onset, 30-50 Hz, 30-60 min post drug)?
A: *** (*** P < 0.001)

Q: What about the “Treatment effect on EEG power vs vehicle, significance” value (15 mg/kg IV, 15 min post SE onset, 50-70 Hz, 0-15 min. post drug) of the same molecule?
A: ** (** P < 0.01)

Q: And the “Treatment effect on EEG power vs vehicle, significance” value (15 mg/kg IV, 15 min post SE onset, 50-70 Hz, 1-2 hrs post drug)?
A: ** (** P < 0.01)

Q: What about the “Treatment effect on EEG power vs vehicle, significance” value (15 mg/kg IV, 15 min post SE onset, 50-70 Hz, 2-3 hrs post drug) of the same molecule?
A: ns

Q: And the “Treatment effect on EEG power vs vehicle, significance” value (15 mg/kg IV, 15 min post SE onset, 50-70 Hz, 3-5 hrs post drug)?
A: ns

Q: What about the “Treatment effect on EEG power vs vehicle, significance” value (15 mg/kg IV, 15 min post SE onset, 50-70 Hz, 15-30 min post drug) of the same molecule?
A: ** (** P < 0.01)

Q: And the “Treatment effect on EEG power vs vehicle, significance” value (15 mg/kg IV, 15 min post SE onset, 50-70 Hz, 30-60 min post drug)?
A: ** (** P < 0.01)

Q: And the “Treatment effect on EEG power vs vehicle, significance” value (15 mg/kg IV, 15 min post SE onset, 70-96 Hz, 0-15 min. post drug)?
A: ** (** P < 0.01)

Q: And the “Treatment effect on EEG power vs vehicle, significance” value (15 mg/kg IV, 15 min post SE onset, 70-96 Hz, 1-2 hrs post drug)?
A: ** (** P < 0.01)

Q: What about the “Treatment effect on EEG power vs vehicle, significance” value (15 mg/kg IV, 15 min post SE onset, 70-96 Hz, 2-3 hrs post drug) of the same molecule?
A: ns

Q: And the “Treatment effect on EEG power vs vehicle, significance” value (15 mg/kg IV, 15 min post SE onset, 70-96 Hz, 3-5 hrs post drug)?
A: ns

Q: And the “Treatment effect on EEG power vs vehicle, significance” value (15 mg/kg IV, 15 min post SE onset, 70-96 Hz, 15-30 min post drug)?
A: *** (*** P < 0.001)

Q: And the “Treatment effect on EEG power vs vehicle, significance” value (15 mg/kg IV, 15 min post SE onset, 70-96 Hz, 30-60 min post drug)?
A: ** (** P < 0.01)

Q: And the “reduction in SE amplitude” value (12 and 15 mg/kg IV)?
A: very strong reduction in SE amplitude overall

Q: And the “EEG power” value (dosed 15 minutes after SE-onset)?
A: reduced EEG power across all frequency ranges to levels at or below baseline for at up to 5 h

Q: And the “EEG power” value (dosed at 60′ post SE-onset, not below baseline up to 70 Hz)?
A: strongly reduced
